Reference: patent US7230007B2, “Derivatives of 3-(Guanidinocarbonyl) heterocycle, methods of preparation and intermediates thereof, their use as medicaments, and pharmaceutical compositions therefrom” (Sanofi-Aventis Deutschland GmbH, priority 2003, dated 2007)
Counter-ions that a name gives are not always drawn.

Assays:
NHE1 = target: T1, NHE1 (Homo sapiens, UniProt P19634); assay: NHE inhibition FLIPR test (intracellular pH recovery, BCECF); assay type: cell-based; conditions: transfected LAP-1 cell line expressing NHE1 subtype, pHi recovery after acidification
T1 construct: expressed in transfected cells
Procedure: The NHE inhibitory activities (IC50 values) of the compounds according to the invention were determined by a FLIPR test.
The test is performed in the FLIPR (Fluorescent Imaging Plate Reader) equipped with clear-bottomed and black-walled 96-well microtitration plates.
The growth medium for the transfected cells (Iscove+10% foetal calf serum) also comprises G418 as selection antibiotic to ensure the presence of transfected sequences.
The actual test begins by eliminating the growth medium and adding 100 μl of loading buffer per well (5 μM of BCECF-AM [2′,7′-bis(2-carboxyethyl)-5-(6)-carboxyfluoresceine acetoxymethyl ester] in 20 mM of NH4Cl, 115 mM of choline chloride, 1 mM of CaCl2, 5 mM of KCl, 20 mM of HEPES and 5 mM of glucose; pH 7.4 (adjusted with KOH). The cells are then incubated for 20 minutes at 37° C. This incubation results in the loading of the fluorescent dye into the cells, the fluorescence intensity of which depends on the pHi, and on the NH4Cl, which results in a slight basification of the cells.
The precursor BCECF-AM, a non-fluorescent dye, is, as an ester, capable of crossing the membrane. The actual dye, which is incapable of crossing the membrane, is released inside the cell by esterases.
After this 20-minute incubation, the loading buffer, which comprises NH4Cl and free BCECF-AM, is removed by washing three times in the cell washing device (Tecan Columbus), each wash being performed with 400 μl of washing buffer (133.8 mM of choline chloride, 4.7 mM of KCl, 1.25 mM of MgCl2,1.25 mM of CaCl2, 0.97 mM of K2HPO4, 0.23 mM of KH2PO4, 5 mM of HEPES and 5 mM of glucose; pH 7.4 (adjusted with KOH)). The residual volume remaining in the wells is 90 μl (possibly between 50 and 125 μl). This washing step removes the free BCECF-AM and results in an intracellular acidification (pHi of 6.3–6.4) due to the removal of the external ammonium ions.
As the equilibrium of the intracellular ammonium with the aqueous ammonia and the protons, by removal of the extracellular ammonium and by the subsequent immediate crossing of the aqueous ammonia across the cell membrane, is disrupted, the washing process results in intracellular protons remaining, which is the cause of the intracellular acidification. This acidification can result finally in the death of the cells if it lasts long enough. It is important here for the washing buffer to be free of sodium (<1 mM), otherwise the extracellular sodium ions would result in an immediate increase in the pHi on account of the activity of the cloned NHE isoforms. It is also important for all the buffers used (loading buffer, washing buffer and regeneration buffer) not to contain any HCO3^− ions, otherwise the presence of bicarbonate would result in the activation of bicarbonate-dependent systems that disrupt the pHi regulation, which systems are contained in the LAP-1 parental cell line.
The microtiter plates containing acidified cells are then transferred (up to 20 minutes after the acidification) to the FLIPR. In the FLIPR, the intracellular fluorescent dye is activated with light of a wavelength of 488 nm, which is generated by an argon laser, and the measuring parameters (laser power, illumination time and diaphragm of the […] camera integrated into the FLIPR) are chosen such that the average value of the fluorescent signal per well is between 30,000 and 35,000 relative fluorescence units.
The actual measurement in the FLIPR starts with a photograph being taken by the CCD camera every two seconds under software control. After 10 seconds, the increase in the intracellular pH is initiated by adding 90 μl. of regeneration buffer (133.8 mM of NaCl, 4.7 mM of KCl, 1.25 mM of MgCl2, 1.25 mM of CaCl2, 0.97 mM of K2HPO4, 0.23 mM of KH2PO4, 10 mM of HEPES and 5 mM of glucose; pH 7.4 (adjusted with NaOH)) using a 96-well pipette device incorporated into the FLIPR. Some wells, to which is added pure regeneration buffer, serve as positive controls (100% NHE activity). […]

T1 sequence (P19634 whole entry, species assumed): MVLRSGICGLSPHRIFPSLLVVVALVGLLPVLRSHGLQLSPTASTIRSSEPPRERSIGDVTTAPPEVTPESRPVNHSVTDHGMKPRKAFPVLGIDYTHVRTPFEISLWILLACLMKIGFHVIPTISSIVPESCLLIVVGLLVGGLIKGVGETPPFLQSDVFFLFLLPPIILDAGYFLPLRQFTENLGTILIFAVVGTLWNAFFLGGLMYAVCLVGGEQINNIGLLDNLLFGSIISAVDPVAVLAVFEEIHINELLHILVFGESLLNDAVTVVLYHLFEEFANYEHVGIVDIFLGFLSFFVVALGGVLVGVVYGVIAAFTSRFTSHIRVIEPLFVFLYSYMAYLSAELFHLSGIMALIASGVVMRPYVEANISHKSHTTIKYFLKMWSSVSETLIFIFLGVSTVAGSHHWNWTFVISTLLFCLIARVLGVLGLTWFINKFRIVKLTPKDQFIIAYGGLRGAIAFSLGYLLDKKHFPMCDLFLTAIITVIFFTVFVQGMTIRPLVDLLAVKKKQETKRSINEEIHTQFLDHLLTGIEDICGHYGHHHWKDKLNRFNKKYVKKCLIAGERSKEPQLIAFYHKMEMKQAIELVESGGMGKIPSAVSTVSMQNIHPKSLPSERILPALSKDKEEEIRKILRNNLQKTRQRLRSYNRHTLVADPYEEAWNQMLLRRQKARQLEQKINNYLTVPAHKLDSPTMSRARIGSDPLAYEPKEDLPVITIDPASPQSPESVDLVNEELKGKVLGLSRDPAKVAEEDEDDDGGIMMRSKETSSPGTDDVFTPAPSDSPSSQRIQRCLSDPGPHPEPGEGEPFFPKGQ

Row | SMILES | IC50 (NHE1) [nM] | melting point [°C]
1 | N=C(N)NC(=O)c1cn(-c2cc(O)nc3ccccc23)c2ncccc12 [Example 10, N-[1-(2-Hydroxy-quinolin-4-yl)-1H-pyrrolo[2,3-b]pyridine-3-carbonyl]-guanidine] | 660 | –
2 | N=C(N)NC(=O)c1cn(-c2ccnc3ccccc23)c2ncccc12 [Example 1, N-[1-(Quinolin-4-yl)-1H-pyrrolo[2,3-b]pyridine-3-carbonyl]guanidine] | 3 | 164
3 | CS(=O)(=O)c1ccc(-n2cc(C(=O)NC(=N)N)c3cccnc32)cc1 (as salt: hydrochloride) [Example 6, N-[1-(4-(Methylsulfonyl)phenyl)-1H-pyrrolo[2,3-b]pyridine-3-carbonyl]guanidine hydrochloride] | – | 266 to 270
4 | Cl.N=C(N)NC(=O)c1cn(-c2ccccn2)c2ncccc12 [Example 5, N-[1-(Pyridin-2-yl)-1H-pyrrolo[2,3-b]pyridine-3-carbonyl]guanidine hydrochloride] | 18 | 205 to 207
5 | CS(=O)(=O)c1ccc(-n2cc(C(=O)NC(=N)N)c3cccnc32)cc1 [Example 6, N-[1-(4-(Methylsulfonyl)phenyl)-1H-pyrrolo[2,3-b]pyridine-3-carbonyl]guanidine hydrochloride] | 3760 | –

The remaining compounds from weak to strong by IC50 (NHE1), led by results:

Row | IC50 (NHE1) [nM] | melting point [°C] | SMILES
6 | 6240 | – | N=C(N)NC(=O)c1cn(-c2ccc3ccccc3n2)c2ncccc12 [Example 4, N-[1-(Quinolin-2-yl)-1H-pyrrolo[2,3-b]pyridine-3-carbonyl]guanidine]
7 | 37 | > 260 | Cn1ccc2c(-n3cc(C(=O)NC(=N)N)c4cccnc43)ncnc21 [Example 9, N-[1-(7-Methyl-7H-pyrrolo[2,3-d]pyrimidin-4-yl)-1H-pyrrolo[2,3-b]pyridine-3-carbonyl]-guanidine]
8 | 26 | – | Cc1cc(-n2cc(C(=O)NC(=N)N)c3cccnc32)c2ccccc2n1 [Example 8, N-[1-(2-Methylquinolin-4-yl)-1H-pyrrolo[2,3-b]pyridine-3-carbonyl]guanidine hydrochloride]
9 | 15 | – | N=C(N)NC(=O)c1cn(-c2nccc3ccccc23)c2ncccc12 [Example 3, N-[1-(Isoquinolin-1-yl)-1H-pyrrolo[2,3-b]pyridine-3-carbonyl]guanidine]
10 | 10 | 210 | N=C(N)NC(=O)c1cn(-c2ccncc2)c2ncccc12 [Example 2, N-[1-(Pyridin-4-yl)-1H-pyrrolo[2,3-b]pyridine-3-carbonyl]guanidine]
11 | 3 | – | CN(C)c1cccc(-n2cc(C(=O)NC(=N)N)c3cccnc32)c1 [Example 7, N-[1-(3-(Dimethylamino)phenyl)-1H-pyrrolo[2,3-b]pyridine-3-carbonyl]guanidine]
